The record followed here is patent US20230114808A1, “THERAPEUTIC RNA FOR PROSTATE CANCER” (BioNTech SE, priority 2019, published 2023).

Series [1] is described as follows: Respiratory safety (plethysmography) within GLP repeated dose toxicity studies (LPT No. 28864, 30283). The series is classed as in vivo, mice. The note with it: positive control, 30 mg/kg b.w. As for the experimental part:
Respiratory safety was included in repeated dose toxicity studies in mice using RNA DPs coding for TAAs in compliance with GLP (LPT No. 28864 and 30283, for study design see below). For example, plethysmography was tested in the study with RNA(LIP) (LPT No. 30283) with four animals/sex/group treated either with control buffer, a low and a high dose (5 and 50 μg of RNA formulated with 9 μg and 90 μg of liposomes, respectively). A positive control of animals treated with 30 mg Carbamyl-β-methylcholine chloride (bethanecol)/kg b.w. was also included. Plethysmography was performed one day after the 4th to 7th dosing. The tests included the evaluation of respiratory rate, tidal volume, minute volume, inspiratory time, expiratory time, peak expiratory and inspiratory flow, expiratory time, and airway resistance index.

The subject of series [2] is KLK2, PSA (KLK3), PAP (ACPP), HOXB13, and NKX3-1. Description: IFN-γ ELISPOT of splenocytes restimulated with mRNA-electroporated BMDCs after RNA(LIP) vaccination. The series is classed as in vivo, A2/DR1 mice. The note with it: 30 μg of each antigen RNA complexed with liposomes, IV, four to five vaccinations, R&D-quality RNA. As for the experimental part:
FIG. 18: Vaccination with W_pro1 antigen RNAs leads to antigen-specific T-cell responses. Splenocytes of intravenously vaccinated A2/DR1 mice (n=4-5/group) were restimulated for 20 h with BMDCs electroporated with the corresponding mRNAs as indicated. BMDCs electroporated with irrelevant mRNA were used as control (open symbols, grey bars). Effector function was measured using an IFN-γ ELISPOT assay. Symbols indicate mean values of triplicate wells from individual animals. Bars indicate median of all animals per group.
To obtain more information about the in vivo induction of antigen-specific T cells by the prostate specific antigens KLK2, PSA (KLK3), PAP (ACPP), HOXB13, and NKX3-1, RNA(LIP) products were prepared using RNA of R&D quality and liposomes of GMP-like quality. The RNA(LIP) products were injected intravenously into transgenic mice manipulated to express the human leukocyte antigens HLA-A*0201 and -DRB1*01. Using these mice the priming and expansion of T cells specific for HLA-restricted epitopes can be examined in vivo. A2/DR1 mice were vaccinated four to five times by injection of 30 μg of each antigen RNA complexed with liposomes, followed by isolation of spleen cells (5 days after last vaccination). The priming efficiency of the test items was evaluated by IFN-γ ELISPOT assay after restimulation with bone marrow derived dendritic cells (BMDC) electroporated with the respective mRNA or unrelated control mRNA.

In series [3] the test system is KLK2, KLK3 (PSA), ACPP (PAP), NKX3-1 or HOXB13. Description: IFN-γ ELISPOT of splenocytes restimulated with peptide pools (Example 3). The series is classed as in vivo, A2/DR1 mice. The note with it: 30 μg RNA(Lip) days 1, 8, 15, 22; splenocytes five days after final injection; unpaired t test. The source says:
IFN-γ ELISPOT analysis of T-cell effectors from the spleen of mice immunized with lipoplex-formulated RNA coding for KLK2(aa 1-261), KLK3(aa 1-261), ACPP(aa 1-418), HOXB13(aa 1-284) or NKX3-1(aa 1-234). Splenocytes obtained five days after the final immunization were re-stimulated with either a peptide pool spanning the respective human protein, P2/P16/P17 peptides or with an irrelevant control peptide CMV pp65(495-504). Dots represent individual animals; horizontal bars indicate the mean±SD of the three animals.
At day 1, day 8, day 15, and day 22 A2/DR1 mice were immunized with 200 μL of a 0.15 mg/mL RNA(Lip) solution which corresponds to 30 μg RNA(Lip).
Splenocytes were obtained from the immunized A2/DR1 mice five days after the final of four RNA(Lip) injections, and in vivo induction ofantigen-specificTcells was determined by ELISPOT analysis. To test for the immunogenicity, isolated splenocytes were re-stimulated with a peptide pool (15 mers, overlapping by 11 amino acids) spanning the respective human proteins, KLK2, KLK3 (PSA), ACPP (PAP), NKX3-1 or HOXB13. […] On all ELISPOT plates, the negative control medium alone induced only a minimal spot count regardless of the animal the splenocytes had been derived from.

Series [4] concerns KLK2, PSA (KLK3), PAP (ACPP), HOXB13, and NKX3-1. Nature of the series: IFN-γ ELISPOT of splenocytes restimulated with mRNA-electroporated BMDCs after RNA(LIP) vaccination. The series is classed as in vivo, A2/DR1 mice. Particulars: RNAs manufactured under GMP-conditions; study will be performed.

With `CC(C[N+](C)(C)C)OC(N)=O.[Cl-]` (stereo not drawn) [Carbamyl-β-methylcholine chloride], the “pulmonary parameters (plethysmography)” value in series [1] was “expected alterations”.
Regarding “beta-S-ARCA(D1)-hAg-Kozak-ACPP-GS-P2P16-GS-MITD-FI-A30L70 [RBL040.1]”, in series [2], the “antigen-specific T-cell responses in vivo” value is “induced antigen-specific T-cell responses”. The “IFN-γ+ spot count vs restimulation with control peptide CMV pp65” value in series [3] is on record as “statistically higher”. In series [4], the immunogenicity result is recorded as “comparable to the results from earlier studies”.
The corresponding values for “beta-S-ARCA(D1)-hAg-Kozak-KLK2-GS-P2P16-GS-MITD-FI-A30L70 [RBL038.1]” are “induced antigen-specific T-cell responses”, “statistically higher” and “comparable to the results from earlier studies”.
As to “beta-S-ARCA(D1)-hAg-Kozak-KLK3-GS-P2P16-GS-MITD-FI-A30L70 [RBL039.1]”, the “antigen-specific T-cell responses in vivo” value in series [2] is on record as “induced antigen-specific T-cell responses”. Besides, in series [4], the immunogenicity entry is “comparable to the results from earlier studies”.
With “beta-S-ARCA(D1)-hAg-Kozak-sec-GS-HOXB13-GS-P2P16-GS-MITD-FI-A30L70 [RBL041.1]”, in series [2], the “antigen-specific T-cell responses in vivo” value is recorded as “induced antigen-specific T-cell responses”. In series [3], the “IFN-γ+ spot count vs restimulation with control peptide CMV pp65” value was “statistically higher”. In series [4], the immunogenicity result was “comparable to the results from earlier studies”.
Regarding “beta-S-ARCA(D1)-hAg-Kozak-sec-GS-NKX31-GS-P2P16-GS-MITD-FI-A30L70 [RBL045.1]”, the “antigen-specific T-cell responses in vivo” value in series [2] is given as “induced antigen-specific T-cell responses”. For the same compound, in series [4], the immunogenicity entry is reported as “comparable to the results from earlier studies”.
